Assay results published in PMC12526156, “Optimization of the Macrocyclic Tetrapeptide [D-Trp]CJ-15,208 to Prevent Stress-Induced Relapse of Cocaine-Seeking Behavior” (Molecules, 2025).
Converted amounts (≈) assume the structure as drawn. Like-named read-outs stand apart in the source and are kept apart here. Where a SMILES comes first, the peptide text is derived from it. [ ]: non-standard residue; d: D form. The star is where a group is joined. dPhe(3,5-F2) = N[C@H](Cc1cc(F)cc(F)c1)C(=O)O; dPhe(3-Me) = Cc1cccc(C[C@@H](N)C(=O)O)c1; dPhe(3-F) = N[C@H](Cc1cccc(F)c1)C(=O)O; For = O=C*

Key:
[1] = Metabolic stability in mouse liver microsomes; format: in vitro ADME; details: 1 mg protein/mL; for half-life at 1 µM / microsomal CLint at 1 µM: mouse liver microsomes
Method: (§1) Evaluation of the metabolic stability of the macrocyclic tetrapeptides by human and mouse liver microsomes was performed by Curia Global (Buffalo, NY, USA). […]

[2] = biological target: T1, human MOR (Homo sapiens, UniProt P35372); assay: biochemical; format: binding
T1 construct: expressed in transfected cells

[3] = biological target: T2, hKOR (Homo sapiens, UniProt P41145); assay: Competition binding, [3H]U69,593, hKOR-CHO membranes
[4] = Metabolic stability in human liver microsomes; format: in vitro ADME; details: 1 mg protein/mL; for half-life at 1 µM / microsomal CLint at 1 µM: human liver microsomes
Method: as §1

[5] = biological target: CNS KORs (Mus musculus, UniProt P33534); assay: 55 °C WWTW assay, antagonism of centrally administered U50,488 (30 nmol, i.c.v.); details: 2.5 h pretreatment; for antagonism of CNS KORs: 30 mg/kg, p.o. (9: 10 mg/kg, p.o.)
[6] = biological target: T2, hKOR; assay: KOR cAMP assay using GloSensor-22F, agonist mode (KOR-CHO-GLO cells); format: cell-based; details: read-out: KOR Efficacy (%)
[7] = biological target: T2, hKOR; assay: KOR cAMP assay using GloSensor-22F, antagonist mode (vs 10 nM U50,488); format: cell-based
Text: A piggy-Bac (PB) transposon/transposase system was utilized to allow for the stable integration of the GloSensor-22F cAMP sensor (Promega, Madison, WI, USA) gene into genomic TTAA sites in Chinese hamster ovary cells already stably expressing the hKOR. The pFastBac hyperPB plasmid vector, which codes for the piggy-Bac transposon/transposase system, was utilized and was a kind gift from Dr. John Lueck. The multicistronic expression cassette developed for our experiments consisted of a CMV promoter driving constitutive expression of GloSensor-22F cAMP sensor, followed by an internal ribosome entry site (IRES) to drive the expression of codon-optimized HygR-P2A-mScarlet (hygromycin resistance gene and mScarlet separated by a 2A self-cleaving peptide element). To clone the expression cassette onto the pFastBac vector, the CMV promoter and GloSensor-22F were PCR amplified from pGloSensor-22F cAMP Plasmid (Promega), the IRES sequence was PCR amplified from pLVX-CMV-Galpha-oA ONE-GO (a gift from Dr. Mikel Garcia-Marcos, Addgene plasmid #189732), the HygR-P2A-mScarlet sequence was a kind gift from Dr. Lueck, and a bGH-poly(A) termination sequence was PCR amplified from pcDNA3.1(+). The pFastBac vector was linearized via overnight digestion with CspCI at 37 °C, which cuts between two inverted terminal repeat (ITR) sequences, and the corresponding backbone and all PCR fragments were gel purified and assembled via Gibson assembly using the Gibson Assembly MasterMix (New England Biolabs, Ipswich, MA, USA). The resulting pFastBac CMV GloSensor-22F IRES HygR-P2A-mScarlet bGH plasmid was transformed into NEB Stable Competent E. coli (New England Biolabs), miniprepped using the E.Z.N.A. Plasmid DNA Mini Kit (Omega Bio-Tek, Norcross, GA, USA), and sequence verified by nanopore whole-plasmid sequencing (Eurofins Genomics, Louisville, KY, USA).
3.0 × 10^6 hKOR-CHO cells were plated on a 6 cm dish and incubated for four h at 37 °C and 5% CO2 in DMEM (Corning Mediatech, Manassas, VA, USA) supplemented with 5% FBS (Corning Mediatech), 1% Penicillin/Streptomycin (Gibco, Waltham, MA, USA). The cells were then transfected with 2.0 μg pFastBac CMV GloSensor-22F IRES HygR-P2A-mScarlet bGH using PEI as a transfection reagent. The following day, transfected cells were reseeded onto a 10 cm dish at a density of 5.0 × 10^5 cells and 600 μg/mL hygromycin B (Gold Bio, St. Louis, MO, USA) was added to the culture media. Cells were cultured under selection antibiotics for seven days, and the selection process was monitored by the increase in abundance of mScarlet positive cells via epifluorescence microscopy.
Following the selection period, KOR-CHO-GLO cells were maintained at 37 °C and 5% CO2 in DMEM supplemented with 5% FBS, 1% Penicillin/Streptomycin and 300 μg/mL hygromycin B to reduce the likelihood of CMV promoter silencing. On the day of the assay, cells were detached with 0.05% trypsin (Gibco) and counted, then centrifuged (1000× g, 5 min) and resuspended in assay buffer (1xPBS, 0.1% glucose, 0.5 mM MgCl2) containing 4 mM D-luciferin substrate (Gold Bio) at approximately 2 million cells/mL. 25 μL of cells (~50,000/well) were seeded onto poly L-lysine-coated white 96-well flat bottom plates (Greiner Bio-One, Kremsmünster, Austria)) and returned to the incubator for 60 min. Following incubation, cells were allowed to equilibrate to room temperature protected from light (10–15 min). Initial luminescence readings (at least 10 cycles) were collected for each well using a FLUOstar Omega v.6.2 plate reader (BMG Labtech, Ortenberg, Germany), after which the plate was removed. Prepared 4x treatments of drug (25 μL) were added to appropriate wells followed by 50 μL of 20 μM forskolin (AmBeed, Buffalo Grove, IL, USA) before the plate was returned to the reader and luminescence measured until final plateau levels were achieved (20–30 min). Assays were performed in duplicate and repeated at least three times.

[8] = Kinetic aqueous solubility; format: physicochemical; details: 1% DMSO, pH 7.4
Text: Table A1 Stability of [D-Trp]- and [D-Phe^4]CJ-15,208 and selected analogs in human (HLMs) and mouse liver microsomes (MLMs)^1. and kinetic aqueous solubility. | column: Solubility ^2 / (µM)

[9] = test system: C57BL/6J mice; assay: 55 °C warm-water tail-withdrawal assay, antinociception; format: in vivo, mouse; details: p.o. dose response; significant only first 10 min at high doses
Method: For intracerebroventricular administration, peptides were dissolved in DMSO at a concentration of 20 mM (100 nmol/5 µL), then diluted to test doses in a final vehicle solution of 50%DMSO/50% saline (0.9%). For all other testing (for oral administration), peptides were made fresh each day for testing in a final vehicle solution of 10% DMSO/10% Solutol/80% saline (0.9%).
Intracerebroventricular injections were made directly into the lateral ventricle according to the modified steps detailed previously. The volume of all i.c.v. injections was 5 μL, using a 10 μL Hamilton microliter syringe. The mouse was lightly anesthetized with isoflurane, an incision was made in the scalp, and the injection was made 2 mm lateral and 2 mm caudal to bregma at a depth of 3 mm.
The dose response of analogs 3, 6, 9 and 14 were also assessed following administration of one of up to four additional oral (p.o.) doses (1–30 mg/kg).

[10] = test system: C57BL/6J mice; assay: Stress-induced reinstatement of extinguished cocaine conditioned place preference; details: for fold lower dose for significant reduction of stress-induced reinstatement than [D-Trp]CJ-15,208: vs 60 mg/kg
[11] = biological target: DOR (Mus musculus, UniProt P32300); assay: 55 °C WWTW assay, antagonism of the DOR-selective agonist SNC80; details: 3 or 4 30 mg/kg, p.o., 9 10 mg/kg, 2.5 h before SNC-80 100 nmol, i.c.v.
[12] = biological target: MOR (Mus musculus, UniProt P42866); assay: 55 °C WWTW assay, antagonism of the MOR-preferring agonist morphine; details: 3 or 4 30 mg/kg, p.o., 9 10 mg/kg, 2.5 h before morphine 10 mg/kg, i.p.
[13] = test system: C57BL/6J mice; design: method as in PMID 23425081; details: cited from earlier work
[14] = biological target: KOR; design: method as in PMID 37765026; details: cited from earlier work
[15] = [3H]DAMGO, human MOR, ± S.E.M., three independent experiments, read-out: MOR Ki
[16] = [3H]U69,593, human KOR, ± S.E.M., three independent experiments, read-out: KOR Ki
[17] = 1 µM compound, 37 °C, read-out: MLM t1/2
[18] = 1 µM compound, 37 °C, read-out: HLM t1/2
[19] = p.o. once daily for two days, 1.5 h prior to FSS

Structure (SMILES) | Ki [2, 15] | Selectivity (MOR Ki/KOR Ki) ([3]; MOR Ki/KOR Ki) | Ki [3, 16] | antagonism of CNS KORs [5] | Emax at 10 µM [6] | IC50 [7] | solubility kinetic [8] | antinociception [9] | half-life at 1 µM [1, 17] | microsomal CLint at 1 µM ([1]; read-out: MLM CLint) | half-life at 1 µM [4, 18] | microsomal CLint at 1 µM ([4]; read-out: HLM CLint) | effect on antinociceptive effects of SNC80 [11] | effect on antinociceptive effects of morphine [12] | doses not preventing stress-induced reinstatement of cocaine CPP [10, 19] | fold lower dose for significant reduction of stress-induced reinstatement than [D-Trp]CJ-15,208 ([10]; p.o.) | doses not producing significant antagonism of CNS KORs [5] | further results
Cc1cccc(C[C@H]2NC(=O)[C@H](Cc3ccccc3)NC(=O)[C@H]3CCCN3C(=O)[C@H](Cc3ccccc3)NC2=O)c1 [Analog 14, [D-Phe(m-Me)^4]CJ-15,208] (cyclo(F[dP]F[dPhe(3-Me)])) | 130 ± 11 nM | 5 | 26 ± 3 nM | ineffective | 0.74 ± 5.7% | 320 ± 67 nM | 19 µM (≈ 10.5 µg/mL) | < 20% | – | – | – | – | – | – | – | – | – | half-life ([1]; microsomes, 1 µM compound, 37 °C, read-out: MLM t1/2): 1.5 min; microsomal CLint ([1]; microsomes, read-out: MLM CLint): 467 µL/min/mg; half-life ([4]; microsomes, 1 µM compound, 37 °C, read-out: HLM t1/2): 4.1 min; microsomal CLint ([4]; microsomes, read-out: HLM CLint): 170 µL/min/mg
O=C1N[C@H](Cc2cccc(F)c2)C(=O)N[C@@H](Cc2ccccc2)C(=O)N2CCC[C@@H]2C(=O)N[C@H]1Cc1ccccc1 [Analog 6, [D-Phe(m-F)^4]CJ-15,208] (cyclo(F[dP]F[dPhe(3-F)])) | 160 ± 15 nM | 5 | 32 ± 5.8 nM | ineffective | 11 ± 5.6% | 340 ± 58 nM | 26 µM (≈ 14.5 µg/mL) | < 20% | 2.1 min | 331 µL/min/mg | 1.8 min | 376 µL/min/mg | – | – | – | – | – | –
O=C1N[C@H](Cc2cc(F)cc(F)c2)C(=O)N[C@@H](Cc2ccccc2)C(=O)N2CCC[C@@H]2C(=O)N[C@H]1Cc1ccccc1 [Analog 9, [D-Phe(3,5-F2)^4]CJ-15,208] (cyclo(F[dP]F[dPhe(3,5-F2)])) | 290 ± 27 nM | 12 | 25 ± 4.3 nM | significant antagonism | 14 ± 2.4% | 320 ± 49 nM | 8.6 µM (≈ 4.94 µg/mL) | < 20% | 1.2 min | 600 µL/min/mg | 2.9 min | 237 µL/min/mg | no significant effect | no significant effect | – | – | – | reduction of stress-induced reinstatement of cocaine CPP ([10]; 10 mg/kg, p.o.): not significant
O=C1N[C@H](Cc2ccccc2)C(=O)N[C@@H](Cc2ccccc2)C(=O)N2CCC[C@@H]2C(=O)N[C@H]1Cc1ccccc1 [Analog 4, cyclo[Phe-D-Pro-Phe-D-Phe]] (cyclo(F[dP]F[dF])) | 270 ± 23 nM | 11 | 24 ± 0.97 nM | significant antagonism | 19 ± 8.1% | 460 ± 100 nM | 24 µM (≈ 12.9 µg/mL) | < 20% | 1.6 min | 447 µL/min/mg | 4.2 min | 165 µL/min/mg | no significant effect | no significant effect | 3 mg/kg | 6 fold | 3 mg/kg, p.o. | fold lower KOR affinity than [D-Trp]CJ-15,208 (1) [3]: 3.5 fold
O=C1N[C@H](Cc2c[nH]c3ccccc23)C(=O)N[C@@H](Cc2ccccc2)C(=O)N2CCC[C@@H]2C(=O)N[C@H]1Cc1ccccc1 [Analog 1, cyclo[Phe-D-Pro-Phe-D-Trp]] (cyclo(F[dP]F[dW])) | – | – | – | – | 16 ± 2.4% | 66 ± 11 nM | 23 µM (≈ 13.3 µg/mL) | – | 2.6 min | 269 µL/min/mg | 5.5 min | 127 µL/min/mg | – | – | – | – | – | Ki [2]: 58 ± 7.5 nM; dose required to prevent stress-induced reinstatement [13]: 60 mg/kg, p.o.; Ki [3]: 6.9 ± 1.1 nM; Selectivity (MOR Ki/KOR Ki) [3]: 8; Ki [14]: 21.8 nM
O=Cn1cc(C[C@H]2NC(=O)[C@H](Cc3ccccc3)NC(=O)[C@H]3CCCN3C(=O)[C@H](Cc3ccccc3)NC2=O)c2ccccc21 [Analog 3, [D-Trp(formamide)]CJ-15,208] (cyclo(F[dP]F[dW](For))) | 90 ± 14 nM | 41 | 2.2 ± 0.15 nM | significant antagonism | 9.2 ± 4.9% | 49 ± 5.4 nM | 4.6 µM (≈ 2.79 µg/mL) | < 20% | 1.1 min | 607 µL/min/mg | 2.8 min | 244 µL/min/mg | no significant effect | no significant effect | 10 mg/kg | 2 fold | 1–10 mg/kg, p.o. | doses preventing stress-induced reinstatement of cocaine CPP [10, 19]: 30 mg/kg; doses giving significant antagonism of CNS KORs [5]: 30 mg/kg, p.o.
